Test results taken from PMC1079869 (BMC Neuroscience, 2005).
“Also recorded” adds a separate entry of the source.

What was measured:
rat pituitary cells = settings: cited from earlier work
Source text: The dose-dependence of NPFF-agonist on the BMAX was bell-shaped. This could imply that the NPFF-analogue affects only some conformations of the receptor. […] However, the receptor involved in the prolactin release mechanism was not characterized.

neuropathic rats = settings: periaqueductal grey; cited from earlier work
Source text: (§1) The interaction between NPFF and opioid system in pain and analgesia seems to be complex in nature and the molecular mechanisms behind the observed physiological effects are not known. […] In the rat spinal cord, the highest NPFF-like immunoreactivity is found in the superficial layers of the dorsal h ...

presynaptic DOR = settings: pontine parabrachial nucleus, via presynaptic DOR; cited from earlier work
Source text: as §1

[1] = tested on: opioid withdrawal syndrome; settings: supraspinal administration; cited from earlier work
Source text: as §1

opioid receptor subtypes = settings: any opioid receptor subtype; cited from earlier work
Source text: as §1

pain = tested on: pain; set-up: method as in 5 sources, ref 1 = [1]; PMID 3865193; doi:10.1073/pnas.82.22.7757; Yang H-YT Fratta W Majane EA Costa E Isolation, sequencing, synthesis, and pharmacological characterization of two brain neuropeptides that modulate the action of morphine Proc Natl Acad Sci U S A 198 ||| ref 4 = [4]; PMID 8821539; doi:10.1111/j.1476-5381.1996.tb15217.x; Gouarderes C Jhamandas K Sutak M Zajac JM Role of opioid receptors in the spinal antinociceptive effects of neuropeptide FF analogues Br J Pharmacol 1996 117 493 501 8821539 10.1111/j.1476-5381.1996.t ||| ref 44 = [44]; PMID 10499424; doi:10.1016/S0196-9781(99)00100-X; Xu M Kontinen VK Panula P Kalso E Effects of (1DMe)NPYF, a synthetic neuropeptide FF analogue, in different pain models Peptides 1999 20 1211 1217 10499424 10.1016/S0196-9781(99)00100-X ||| ref 4, 44 = [4]; PMID 8821539; doi:10.1111/j.1476-5381.1996.tb15217.x; Gouarderes C Jhamandas K Sutak M Zajac JM Role of opioid receptors in the spinal antinociceptive effects of neuropeptide FF analogues Br J Pharmacol 1996 117 493 501 8821539 10.1111/j.1476-5381.1996.t || [44]; PMID 10499424; doi:10.1016/S0196-9781(99)00100-X; Xu M Kontinen VK Panula P Kalso E Effects of (1DMe)NPYF, a synthetic neuropeptide FF analogue, in different pain models Peptides 1999 20 1211 1217 10499424 10.1016/S0196-9781(99)00100-X ||| ref 46 = [46]; PMID 12507715; doi:10.1016/S0304-3959(02)00333-0; Cahill CM Morinville A Hoffert C O'Donnell D Beaudet A Up-regulation and trafficking of delta opioid receptor in a model of chronic inflammation: implications for pain control Pain 2003 101 199 208 12; settings: cited from earlier work; for effect on NPFF-induced analgesia / antinociception: opioid antagonist against intrathecal NPFF; for antagonism of analgesic effects of NPFF in vivo: opioid antagonists
NPFF2R = settings: cited from earlier work
Source text: (§2) At the physiological level NPFF seems to have both a direct analgesic effect and a modulatory effect on the opioid system. Some of the effects may be mediated via the NPFF receptors as two such receptors, NPFF1R and NPFF2R, have been identified. […] Also the other RFamide peptides bind to the NPFF receptors with varying affinities, and therefore the exact nature of the receptor-ligand interactions between RFamides and their receptors is still unclear.

NPFF1R = settings: cited from earlier work
Source text: as §2

[2] = molecular target: T1, c-MYC-tagged human delta opioid receptor (Homo sapiens, UniProt P41143); test: FACS analysis of agonist-induced DOR internalization (cell surface fluorescence)
T1 sequence (P41143 whole entry): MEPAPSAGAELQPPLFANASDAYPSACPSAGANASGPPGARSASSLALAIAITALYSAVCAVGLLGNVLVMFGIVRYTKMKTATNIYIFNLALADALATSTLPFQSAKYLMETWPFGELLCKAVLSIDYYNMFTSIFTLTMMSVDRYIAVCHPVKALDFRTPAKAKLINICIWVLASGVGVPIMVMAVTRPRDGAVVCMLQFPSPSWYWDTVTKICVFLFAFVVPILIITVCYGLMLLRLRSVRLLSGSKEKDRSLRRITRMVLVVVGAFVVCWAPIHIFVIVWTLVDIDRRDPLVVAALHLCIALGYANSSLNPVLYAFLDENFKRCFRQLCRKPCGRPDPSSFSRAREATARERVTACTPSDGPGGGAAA
Method: The CHO/MYChDOR cells were collected and suspended into the culture medium. The cells were treated with drugs in suspension as for the immunocytochemistry for the indicated times. After the incubation, the membrane trafficking was stopped by rapidly chilling the cells on ice and removing the medium. After this the cells were kept on ice. The cells were washed with PBS and stained in PBS-suspension with rabbit anti-MYC antibody (1 % normal goat serum (v/v) used to block unspecific binding), followed by the detection with a fluorescent secondary antibody. Dead cells were detected with isopropidium iodide. Cells were analyzed with FACScan flow cytometer (Becton Dickinson and Co., Mountain View, CA, USA). Data from 10000 cells were collected for each run and each sample was run in replicate or triplicate.
The internalization percent was calculated as: [drawing 1] where F(ctrl) in the fluorescence of the time-matched control cells and the F(sample) is the fluorescence measured from the drug-treated cells.
10000 cells/sample were analyzed with FACS.

[3] = molecular target: T1, c-MYC-tagged human delta opioid receptor; type: cell-based
[4] = tested on: MAP-kinase p42MAPK (ERK2); test: Phosphorylation of MAPK (ERK2) in CHO/MYChDOR cells, immunoblot; type: cell-based, Chinese hamster
Method: 25000 cells/well were seeded onto 24-well plates and incubated o/n. The medium was replaced with serum-free medium and the cells were incubated for one hour at 37°C. […] The reaction was stopped by removing the medium and adding modified RIPA-lysis buffer (PBS, pH 7.6; 1 % Nonidet P-40 (v/v); 0.5 % sodium deoxycholate (w/v); 0.1 % SDS (w/v), 10 mM NaF; 0.4 mM PMSF, 10 μg/ml aprotinin, 10 μg/ml leupeptin, 2 mM […]; 0.2 mM bestatin). Cells were lysed on ice for 15 min and the lysates were collected. The protein content was determined with the Bradford method.
10 μg of protein was analyzed on 10 % SDS-PAGE gel and the gel was blotted onto nitrocellulose membrane. […] After washes, the membrane was detected with the ECL-protocol. The band intensities were measured with AlphaDigiDoc1000 documentation system (Alpha Innotech, San Leandro, CA, USA). […]
Figure 6 DOR agonist induced phosphorylation of the MAP-kinase, ERK2, is increased by (1DMe)NPYF. A. Total cell lysates (10 μg protein per lane) were detected with phosphoERK2 and total ERK2 specific antibodies. […] B. The band intensities of phosphoERK2 were quantified and they are presented as relative band intensities with respect to the total ERK2. […] The statistical significance between time-points and treatments was analyzed with two-way Anova with Bonferroni's post-test, n = 5. […]

[5] = molecular target: T1, c-MYC-tagged human delta opioid receptor; test: Tb-DeltI binding on CHO/MYChDOR whole cells, effect of (1DMe)NPYF (time-resolved fluorometry)
Method: 6 μg of crude membrane preparations or whole cells (25 000 cell/well) that were plated one day before experiment and fixed with 4 % PFA for 10 min at room temperature, were used in the saturation binding experiments. The whole cell assays were carried out on normal cell culture plates and the assays with membrane preparations on special filter plates (Pall Life Sciences). The cells or membranes were incubated in 50 mM Tris/HCl pH 7.5; 2.5 mM MgCl2; 60 mM NaCl; 25 μM EDTA, 0.2 % BSA (w/v) for 90 min at room temperature with 0.01 – 781.25 nM Tb-DeltI in the presence or absence of 1 or 5 μM unlabeled DeltI. To study the effect of (1DMe)NPYF on the Tb-DeltI binding, 1–1000 nM (1DMe)NPYF was added together with unlabeled DeltI. After the incubation the unbound Tb-DeltI was removed by washing the plates four times with 50 mM Tris/HCl pH 7.5; 2.5 mM MgCl2. Vacuum pump system was used to wash the filter plates. Since the chelate-bound Tb-ion is nonfluorescent, it needed to be released from the complex. In order to release Tb-ion from the chelate 150 μl Delfia enhancement solution was added to the wells and the plates were incubated on a shaker for 15 min. Thereafter, 40 μl Delfia enhancer that changes the pH of the assay solution appropriate for Tb-fluorescence was added, and the plates were further incubated for 5 min on a shaker. The time-resolved fluorescence of the released Tb-ion was measured with Victor^2 Multilabel counter (Perkin Elemer Wallac, Turku, Finland).

[6] = 100 nM (1DMe)NPYF alone, 5, 10, 30 min, 37°C

FLFQPQRFamide [NPFF, RFamide peptide originally isolated from bovine brain]
effect on prolactin release, dose-response (rat pituitary cells): bell-shaped dose-response curve | attenuation of tactile allodynia (neuropathic rats): selective attenuation of tactile allodynia | modulation of synaptic transmission (presynaptic DOR): modulates synaptic transmission through interaction with presynaptic DOR | opioid withdrawal syndrome [1]: precipitates opioid withdrawal syndrome | displacement of opioid receptor ligands (opioid receptor subtypes): does not displace opioid receptor ligands from any of the opioid receptor subtypes | effect on opiate-induced analgesia (pain): potentiated | analgesia, intrathecal (pain; intrathecal): long-lasting analgesia | effect on opioid antinociception (pain; supraspinal administration): attenuates opioid antinociception | binding to NPFF2R (NPFF2R): binds to both of them | binding to NPFF1R (NPFF1R): binds to both of them

C=CCN1CC[C@]23c4c5ccc(O)c4O[C@H]2C(=O)CC[C@@]3(O)[C@H]1C5 [naloxone]
effect on NPFF-induced analgesia / antinociception (pain): reduced | antagonism of analgesic effects of NPFF in vivo (pain): blocked

Oc1ccc2c3c1O[C@H]1c4[nH]c5ccccc5c4C[C@@]4(O)[C@@H](C2)N(CC2CC2)CC[C@]314 [naltrindole]
effect on NPFF-induced analgesia / antinociception (pain): inhibits the NPFF-induced antinociception; also recorded: reduced | antagonism of analgesic effects of NPFF in vivo (pain): blocked | block of receptor activation by DOR agonists and of enhanced activation by co-applied (1DMe)NPYF ([2]; DOR antagonist with DOR agonists ± (1DMe)NPYF): could completely block

Y-D-AFDVVG-NH2 [DeltI, peptidic DOR agonist]
enhanced antinociceptive activity correlated with receptor recruitment (pain; recruitment of spinal opioid receptors to plasma membrane, inflammation): enhanced antinociceptive activity of DeltI is correlated with the recruitment of spinal opioid receptors from intracellular stores to the plasma membrane

D-YL-(NMe)-FQPQRF-NH2 [(1DMe)NPYF]
effect on DPDPE-induced cAMP inhibition [3]: had hardly an effect on the cAMP accumulation | effect on DPDPE-induced inhibition of cAMP accumulation [3]: enhanced the DOR agonist induced inhibition of cAMP accumulation significantly at all tested DPDPE concentrations | effect on the amount of cAMP [3]: did not have any significant effect on the amount of cAMP | enhancement of inhibitory effect of DOR agonists on cAMP accumulation [3]: able to enhance the inhibitory effect of other DOR agonists, e.g. DeltI | activation of ERK2 [4, 6]: did not result in the activation of ERK2 | effect on ERK2 activation induced by DPDPE ([4]; 100 nM (1DMe)NPYF together with 100 nM DPDPE): significantly promoted the activation induced by DPDPE | DOR internalization [2, 6]: did not induce receptor internalization at any time-point tested | cell surface fluorescence ([2]; 100 nM (1DMe)NPYF alone, 30 min, vs time-matched control cells): somewhat higher fluorescence | effect on the BMAX for Tb-DeltI ([5]; 1 nM and 10 nM (1DMe)NPYF, whole cells): significantly decreased the BMAX | effect on the KD for Tb-DeltI ([5]; 1–1000 nM (1DMe)NPYF, whole cells): only modestly affected | dose-dependence of effect on the BMAX ([5]; 1–1000 nM, whole cells): bell-shaped | effect on the BMAX for Tb-DeltI ([5]; higher concentrations of (1DMe)NPYF, whole cells): affected the BMAX only modestly | displacement of Tb-DeltI at micromolar concentration ([5]; only micromolar concentration, whole cell and membrane assays): could displace Tb-DeltI in whole cell and membrane binding assays to some extent
